Results on 5 compounds are retold here after ChEMBL document CHEMBL1132461 (J Med Chem, 1999).

Assay [1] addresses T1, Angiotensin II receptor (AT-1) type-1 (Rattus norvegicus, UniProt P29089+P25095).
T1 sequence (P29089 whole entry): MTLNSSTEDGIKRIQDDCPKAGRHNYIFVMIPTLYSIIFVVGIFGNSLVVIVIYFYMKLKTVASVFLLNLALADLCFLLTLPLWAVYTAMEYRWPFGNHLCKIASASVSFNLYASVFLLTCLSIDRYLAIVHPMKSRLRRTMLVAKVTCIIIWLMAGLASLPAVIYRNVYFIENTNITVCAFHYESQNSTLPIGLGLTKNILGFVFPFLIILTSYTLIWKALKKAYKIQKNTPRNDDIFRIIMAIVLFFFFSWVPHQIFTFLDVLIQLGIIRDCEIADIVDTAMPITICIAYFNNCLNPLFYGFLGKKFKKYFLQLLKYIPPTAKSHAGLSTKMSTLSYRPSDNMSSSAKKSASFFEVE
T1 sequence (P25095 whole entry): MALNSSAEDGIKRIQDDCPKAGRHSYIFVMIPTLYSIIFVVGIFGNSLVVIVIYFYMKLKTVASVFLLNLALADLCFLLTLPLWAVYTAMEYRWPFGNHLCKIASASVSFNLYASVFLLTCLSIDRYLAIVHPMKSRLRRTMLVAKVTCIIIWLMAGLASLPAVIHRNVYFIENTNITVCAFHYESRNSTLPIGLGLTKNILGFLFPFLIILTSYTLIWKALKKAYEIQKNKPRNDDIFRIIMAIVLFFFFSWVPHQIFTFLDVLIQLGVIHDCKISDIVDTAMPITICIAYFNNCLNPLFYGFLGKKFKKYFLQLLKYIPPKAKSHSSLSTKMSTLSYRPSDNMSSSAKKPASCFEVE
As to the kind of experiment: In vitro inhibitory activity against rat Angiotensin II receptor, type 1 expressed in CHO cells. The format is cell-based.

The target in assay [2] is T1, Angiotensin II receptor (AT-1) type-1. As to the kind of experiment: In vitro binding affinity against Angiotensin II receptor, type 1 from rat liver membranes.

Numbered stars: 1 amine (or outer) side, 2 acyl side, 3 side chain; on linkers, the order of the positions; unused ones are H or OH. Bridge positions count the residues as written; N and C are the ends. Square brackets hold non-standard residues; d marks the D form. Peptide text beside a SMILES is read from it. X2 = O=C([C@@H]1CC[C@@H]([*:3])N1[*:1])[*:2]; X1 = O=C([C@@H]1CC[C@H]([*:3])N1[*:1])[*:2]; hCys = N[C@@H](CCS)C(=O)O

Broadly, the IC50 is the concentration at which inhibition is half-maximal. In the case of `NC(N)=NCCC[C@H](NC(=O)[C@@H](N)CC(=O)O)C(=O)N[C@H]1CS[C@H]2CC[C@@H](C(=O)N[C@@H](Cc3c[nH]cn3)C(=O)N3CCC[C@H]3C(=O)N[C@@H](Cc3ccccc3)C(=O)O)N2C(=O)[C@H](Cc2ccc(O)cc2)NC1=O` (H-DRCY[X1]HPF-OH; thioether 3-5), in assay [1], the IC50 is given as greater than 10000 nM.

In assay [1], `NC(N)=NCCC[C@H](NC(=O)[C@@H](N)CC(=O)O)C(=O)N[C@H]1CS[C@@H]2CC[C@@H](C(=O)N[C@@H](Cc3c[nH]cn3)C(=O)N3CCC[C@H]3C(=O)N[C@@H](Cc3ccccc3)C(=O)O)N2C(=O)[C@H](Cc2ccc(O)cc2)NC1=O` (H-DRCY[X2]HPF-OH; thioether 3-5) came in with an IC50 greater than 10000 nM.

The compound `CC(C)[C@H](NC(=O)[C@H](CCCN=C(N)N)NC(=O)[C@@H](N)CC(=O)O)C(=O)N[C@@H](Cc1ccc(O)cc1)C(=O)N[C@H]1CS[C@@H]2CC[C@@H](C(=O)N[C@@H](Cc3ccccc3)C(=O)O)N2C(=O)[C@H](Cc2c[nH]cn2)NC1=O` (H-DRVYCH[X2]F-OH; thioether 5-7) showed an IC50 in assay [1] greater than 10000 nM.

As usually defined, the Ki is a measure of affinity in units of concentration, obtained from inhibition or displacement. A high value points to a looser hold on the target. As for `NC(N)=NCCC[C@H](NC(=O)[C@@H](N)CC(=O)O)C(=O)N[C@H]1CCS[C@H]2CC[C@@H](C(=O)N[C@@H](Cc3c[nH]cn3)C(=O)N3CCC[C@H]3C(=O)N[C@@H](Cc3ccccc3)C(=O)O)N2C(=O)[C@H](Cc2ccc(O)cc2)NC1=O` (H-DR[hCys]Y[X1]HPF-OH; thioether 3-5), the half-inhibitory concentration (IC50) in assay [1] was 800 nM. Also, in assay [2], the Ki is listed as 750 nM.

In assay [1], `NC(N)=NCCC[C@H](NC(=O)[C@@H](N)CC(=O)O)C(=O)N[C@H]1CCSSCC[C@@H](C(=O)N[C@@H](Cc2c[nH]cn2)C(=O)N2CCC[C@H]2C(=O)N[C@@H](Cc2ccccc2)C(=O)O)NC(=O)[C@H](Cc2ccc(O)cc2)NC1=O` (H-DR[hCys]Y[hCys]HPF-OH; disulfide 3-5) came in with an IC50 of 0.2 nM. The same compound had a Ki in assay [2] of 0.19 nM.
